Experimental data: the supplement of paper PMC11451515

Tested on: SEM cells
Assay: cell viability relative to DMSO control; higher = less cytotoxic
Conditions: 48 h
In short: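 Before seeding, each leukemia line was adapted for at least four passages in each medium. NOMO1 or SEM cells (500 cells/well) and P12-Ichikawa cells (1000 cells/well) went into 1536-well plates at 5 μl, then received library compounds in DMSO by pin dosing across 11 threefold concentrations, 47 μM to 0.79 nM. Readout was CellTiter-Glo One luminescence after 48 h at 37°C, and viability is given as a per-plate percentage of DMSO wells, with cell-free wells as background.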

[1] = HPLM + 10% dialyzed FBS, 0.000781 µM
[2] = HPLM + 10% dialyzed FBS, 0.00234 µM
[3] = HPLM + 10% dialyzed FBS, 0.00702 µM
[4] = HPLM + 10% dialyzed FBS, 0.0211 µM
[5] = HPLM + 10% dialyzed FBS, 0.0632 µM
[6] = HPLM + 10% dialyzed FBS, 0.19 µM
[7] = HPLM + 10% dialyzed FBS, 0.569 µM
[8] = HPLM + 10% dialyzed FBS, 1.71 µM
[9] = HPLM + 10% dialyzed FBS, 5.12 µM
[10] = HPLM + 10% dialyzed FBS, 15.4 µM
[11] = HPLM + 10% dialyzed FBS, 46.1 µM
[12] = RPMI 5 mM glucose + 10% FBS, 0.000781 µM
[13] = RPMI 5 mM glucose + 10% FBS, 0.00234 µM
[14] = RPMI 5 mM glucose + 10% FBS, 0.00702 µM
[15] = RPMI 5 mM glucose + 10% FBS, 0.0211 µM
[16] = RPMI 5 mM glucose + 10% FBS, 0.0632 µM
[17] = RPMI 5 mM glucose + 10% FBS, 0.19 µM
[18] = RPMI 5 mM glucose + 10% FBS, 0.569 µM
[19] = RPMI 5 mM glucose + 10% FBS, 1.71 µM
[20] = RPMI 5 mM glucose + 10% FBS, 5.12 µM
[21] = RPMI 5 mM glucose + 10% FBS, 15.4 µM
[22] = RPMI 5 mM glucose + 10% FBS, 46.1 µM
[23] = RPMI 5 mM glucose + 10% dialyzed FBS, 0.000781 µM
[24] = RPMI 5 mM glucose + 10% dialyzed FBS, 0.00234 µM
[25] = RPMI 5 mM glucose + 10% dialyzed FBS, 0.00702 µM
[26] = RPMI 5 mM glucose + 10% dialyzed FBS, 0.0211 µM
[27] = RPMI 5 mM glucose + 10% dialyzed FBS, 0.0632 µM
[28] = RPMI 5 mM glucose + 10% dialyzed FBS, 0.19 µM
[29] = RPMI 5 mM glucose + 10% dialyzed FBS, 0.569 µM
[30] = RPMI 5 mM glucose + 10% dialyzed FBS, 1.71 µM
[31] = RPMI 5 mM glucose + 10% dialyzed FBS, 5.12 µM
[32] = RPMI 5 mM glucose + 10% dialyzed FBS, 15.4 µM
[33] = RPMI 5 mM glucose + 10% dialyzed FBS, 46.1 µM

| SMILES | cell viability [1] [%] | cell viability [2] [%] | cell viability [3] [%] | cell viability [4] [%] | cell viability [5] [%] | cell viability [6] [%] | cell viability [7] [%] | cell viability [8] [%] | cell viability [9] [%] | cell viability [10] [%] | cell viability [11] [%] | cell viability [12] [%] | cell viability [13] [%] | cell viability [14] [%] | cell viability [15] [%] | cell viability [16] [%] | cell viability [17] [%] | cell viability [18] [%] | cell viability [19] [%] | cell viability [20] [%] | cell viability [21] [%] | cell viability [22] [%] | cell viability [23] [%] | cell viability [24] [%] | cell viability [25] [%] | cell viability [26] [%] | cell viability [27] [%] | cell viability [28] [%] | cell viability [29] [%] | cell viability [30] [%] | cell viability [31] [%] | cell viability [32] [%] | cell viability [33] [%] |
| --- | --- | --- | --- | --- | --- | --- | --- | --- | --- | --- | --- | --- | --- | --- | --- | --- | --- | --- | --- | --- | --- | --- | --- | --- | --- | --- | --- | --- | --- | --- | --- | --- | --- |
| Oc1ccc(-c2ccc(-c3cc(Nc4cccc(CNC5CC5)c4)[nH]n3)cc2)c(O)c1 | 82.4 | 100 | 93.7 | 93.7 | 70.7 | 103 | 91.1 | 46.7 | 25.7 | 9.24 | 6.68 | 97.8 | 106 | 95 | 101 | 72.6 | 89.7 | 110 | 94.5 | 45.7 | 27.4 | 4.97 | 89 | 96.9 | 100 | 87.9 | 84.1 | 99.6 | 100 | 84.8 | 60.2 | 22.8 | 9.47 |
| Cc1ccc([S+](=O)([O-])Nc2cc(Cl)ccc2C(=O)Nc2nc(-c3ccccc3)cs2)cc1 | 116 | 111 | 110 | 117 | 121 | 115 | 24.8 | 133 | 119 | 120 | 55.3 | 127 | 123 | 109 | 126 | 124 | 119 | 32.1 | 124 | 121 | 120 | 58.5 | 121 | 110 | 99.1 | 108 | 110 | 120 | 31.8 | 119 | 126 | 118 | 32.3 |
| N#Cc1ccnc(N2C(=O)CC[C@H]2C(=O)N(c2cncc(F)c2)[C@H](C(=O)NC2CC(F)(F)C2)c2ccccc2Cl)c1 | 94.8 | 104 | 92.2 | 83.1 | 93.7 | 96.7 | 93.6 | 87.6 | 25.4 | 17.6 | 19.1 | 119 | 144 | 119 | 132 | 146 | 134 | 108 | 50.5 | 19.1 | 14.9 | 16.1 | 104 | 100 | 94.6 | 110 | 91.9 | 101 | 105 | 85.9 | 34 | 16.4 | 17.9 |
| CCOC(=O)N[C@@H]1CC[C@@H]2[C@@H](C1)C[C@H]1C(=O)O[C@H](C)[C@H]1[C@H]2/C=C/c1ccc(-c2cccc(F)c2)cn1 | 86.6 | 87.5 | 102 | 111 | 105 | 104 | 111 | 99.5 | 112 | 104 | 75.7 | 95.9 | 81.8 | 98.5 | 107 | 111 | 107 | 106 | 103 | 103 | 100 | 23.3 | 108 | 87.3 | 110 | 112 | 117 | 115 | 108 | 119 | 112 | 112 | 37.1 |
| CC(C)(C)OC(=O)Nc1ccc(-c2cc(C(=O)NCCCCCCC(=O)NO)no2)cc1 | 87.5 | 87.7 | 95.7 | 102 | 77.4 | 99.6 | 102 | 72.4 | 33.5 | 4.09 | 4.02 | 94.9 | 88.1 | 102 | 101 | 74.7 | 101 | 107 | 44.2 | 30.2 | 4.09 | 4.76 | 84.3 | 83.2 | 79.8 | 88.9 | 79.7 | 90.7 | 87.7 | 28.1 | 20.1 | 3.52 | 3.79 |
| Cc1nc(N)ncc1-c1nc(N2CCOCC2)c2sc(C(C)(C)O)cc2n1 | 97.7 | 114 | 118 | 118 | 113 | 40.1 | 14.2 | 9.64 | 8.13 | 7.64 | 5.09 | 92.7 | 85.3 | 78.2 | 74.2 | 13.6 | 11.7 | 9.07 | 7.73 | 6.03 | 5.59 | 4.95 | 115 | 130 | 112 | 122 | 79.5 | 17.6 | 13 | 9.39 | 7.85 | 6.82 | 5.41 |
| CN(C)[C@@H](CCOc1cccc2ccccc12)c1ccccc1 | 139 | 115 | 125 | 110 | 119 | 120 | 100 | 108 | 111 | 107 | 65 | 120 | 122 | 122 | 127 | 132 | 131 | 103 | 118 | 95.7 | 114 | 71.2 | 101 | 121 | 117 | 127 | 131 | 129 | 91.5 | 132 | 101 | 136 | 81 |
| COc1cc2ncnc(Nc3cccc(Cl)c3)c2cc1OC | 99.7 | 112 | 93.1 | 105 | 77.8 | 62.7 | 53.5 | 30.7 | 32.4 | 31.3 | 4.45 | 121 | 118 | 113 | 119 | 76.8 | 50.2 | 50.7 | 19.1 | 7.71 | 6.3 | 4.71 | 98.5 | 111 | 93 | 102 | 77.7 | 58.8 | 59.1 | 22.8 | 19.3 | 9.12 | 3.77 |
| CC(C)(O)C(=O)Nc1ccc([N+](=O)[O-])c(C(F)(F)F)c1 | 98.6 | 107 | 115 | 108 | 116 | 113 | 124 | 123 | 117 | 123 | 103 | 92.2 | 97 | 91.9 | 91.3 | 101 | 97.6 | 103 | 114 | 104 | 123 | 82.8 | 112 | 114 | 112 | 120 | 112 | 118 | 135 | 123 | 131 | 128 | 126 |
| Cc1c(C(=O)c2cccc3ccccc23)c2cccc3c2n1[C@H](CN1CCOCC1)CO3 | 99.3 | 78.2 | 85.2 | 89.5 | 89.7 | 28.8 | 97.9 | 86.7 | 84 | 78.1 | 4.91 | 93.6 | 74.4 | 71.3 | 94.6 | 88.6 | 47.8 | 93.1 | 80.4 | 95.6 | 84.9 | 4.48 | 104 | 80.4 | 82 | 105 | 98 | 65.1 | 92.3 | 93.1 | 91.7 | 76.5 | 5.76 |
| C[C@H](Cc1ccc(O)c(O)c1)[C@@H](C)Cc1ccc(O)c(O)c1 | 123 | 121 | 113 | 116 | 130 | 116 | 29 | 118 | 122 | 105 | 28.8 | 117 | 110 | 105 | 104 | 117 | 103 | 37.3 | 118 | 128 | 101 | 6.24 | 144 | 113 | 119 | 128 | 131 | 116 | 36.6 | 109 | 112 | 109 | 7.68 |
| COC(=O)Nc1nc2ccc([S+]([O-])c3ccccc3)cc2[nH]1 (centres undefined) | 77.9 | 97.3 | 96.5 | 100 | 99.5 | 94.5 | 87.9 | 94.4 | 84 | 59.3 | 57.7 | 113 | 114 | 109 | 104 | 116 | 111 | 107 | 121 | 89.6 | 67.7 | 63 | 106 | 112 | 113 | 111 | 124 | 122 | 105 | 122 | 102 | 59.6 | 69.4 |
| O=[S+]([O-])(NCCNC/C=C/c1ccc(Br)cc1)c1cccc2cnccc12 | 97.5 | 94.8 | 97.5 | 42.4 | 101 | 89.5 | 91.1 | 82.3 | 68.7 | 43.1 | 48.2 | 115 | 119 | 115 | 48.9 | 114 | 131 | 105 | 103 | 62.5 | 58.4 | 43.7 | 95.5 | 96.6 | 93.8 | 45.3 | 91.6 | 87.7 | 83.8 | 74.5 | 56.4 | 41.6 | 34.9 |
| NC\1=N\C(=O)N(\C=C1F)[C@H]2C[C@H](O)[C@@H](CO)O2 | 110 | 123 | 116 | 89.9 | 63.4 | 30.8 | 47.2 | 43.6 | 45.5 | 34.7 | 39.7 |  |  |  |  |  |  |  |  |  |  |  | 125 | 128 | 93 | 53.8 | 38.7 | 21.8 | 35.4 | 40.1 | 28 | 30.1 | 28.5 |
| Cc1cnc(Nc2ccc(N3CCN(C)CC3)cc2)nc1Nc1cccc([S+](=O)([O-])NC(C)(C)C)c1 | 110 | 110 | 118 | 114 | 116 | 94.9 | 85.1 | 27.2 | 7.39 | 2.61 | 3.12 | 116 | 113 | 107 | 114 | 104 | 90.2 | 77.8 | 22.8 | 5.43 | 2.59 | 3.4 | 106 | 105 | 119 | 110 | 101 | 88.4 | 97.9 | 26.2 | 7.58 | 2.94 | 3.71 |
